Literature values in patent publication US20110311619A1 (Ethypharm, priority 2008, published 2011).

mean plasma concentration (dose of 300 mg fenofibrate per day): roughly 15 μg/ml
plasma elimination half-life (in vivo): roughly 20 hours
time after ingestion at which maximum plasma concentration is reached (on average, after ingestion of the drug): five
SMILES: CC(C)(Oc1ccc(C(=O)c2ccc(Cl)cc2)cc1)C(=O)O [fenofibric acid]
